Measurements reported in the NIST ThermoML archive (doi:10.1021/je400373d).
± gives the expanded uncertainty stated by the source.

Legend:
[1] = Liquid, Ebulliometric method (Recirculating still)
[2] = Boiling temperature at pressure P; details: 101.33 kPa; Liquid; Ebulliometric method (Recirculating still)

With `OCCO` [1,2-ethanediol] the “vapor or sublimation pressure” value ([1]; 422.75 K) was 20 ± 0.46 kPa, the “vapor or sublimation pressure” value ([1]; 422.8 K) was 20 ± 0.46 kPa and the “vapor or sublimation pressure” value ([1]; 433.66 K) was 30 ± 0.63 kPa. For the same compound, the “vapor or sublimation pressure” value ([1]; 433.71 K) was 30 ± 0.63 kPa, the “vapor or sublimation pressure” value ([1]; 441.66 K) was 40 ± 0.76 kPa and the “vapor or sublimation pressure” value ([1]; 441.7 K) was 40 ± 0.76 kPa. The “vapor or sublimation pressure” value ([1]; 470.47 K) was 101.3 ± 2 kPa.

With `CNCCO` [2-(methylamino)ethanol] the “vapor or sublimation pressure” value ([1]; 388 K) was 20 ± 0.43 kPa, the “vapor or sublimation pressure” value ([1]; 388.04 K) was 20 ± 0.43 kPa and the “vapor or sublimation pressure” value ([1]; 397.89 K) was 30 ± 0.6 kPa. The “vapor or sublimation pressure” value ([1]; 397.95 K) was 30 ± 0.6 kPa, the “vapor or sublimation pressure” value ([1]; 405.45 K) was 40 ± 0.74 kPa and the “vapor or sublimation pressure” value ([1]; 405.48 K) was 40 ± 0.74 kPa. For the same compound, the “vapor or sublimation pressure” value ([1]; 431.2 K) was 101.3 ± 2 kPa and the “Boiling temperature at pressure P” value [2] was 158.1 ± 0.2 °C.

In the case of `CN(CCO)CCO` [N-methyldiethanolamine], the “vapor or sublimation pressure” value ([1]; 467.34 K) is reported as 20 ± 0.5 kPa, the “vapor or sublimation pressure” value ([1]; 467.4 K) is reported as 20 ± 0.5 kPa and the “vapor or sublimation pressure” value ([1]; 479.37 K) is reported as 30 ± 0.69 kPa. The “vapor or sublimation pressure” value ([1]; 479.4 K) was 30 ± 0.69 kPa, the “vapor or sublimation pressure” value ([1]; 488.14 K) was 40 ± 0.82 kPa and the “vapor or sublimation pressure” value ([1]; 488.17 K) was 40 ± 0.82 kPa. For the same compound, the “vapor or sublimation pressure” value ([1]; 520.28 K) was 101.3 ± 2 kPa.
